Results on 3 compounds are retold here after ChEMBL document CHEMBL1201862, “PubChem BioAssay data set” (2004).

Calls of active or inactive are those of the source. Bounds are passed on as bounds.

Test [1] concerns INS1. Nature of the test: beta cell apoptosis inhibitors, cytokine rescue, dose response, luminescence, retest (AID 449756).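 Further: cell death triggered by IL-1 beta plus TNF-alpha plus IFN-gamma mixture; protective hits raise ATP signal compared with cytokine alone wells.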 The class given is functional, cell-based. The following applies: Rattus norvegicus.
The target of test [2] is T1, Histone-lysine N-methyltransferase NSD2 (Homo sapiens, UniProt O96028).
T1 sequence (O96028 whole entry): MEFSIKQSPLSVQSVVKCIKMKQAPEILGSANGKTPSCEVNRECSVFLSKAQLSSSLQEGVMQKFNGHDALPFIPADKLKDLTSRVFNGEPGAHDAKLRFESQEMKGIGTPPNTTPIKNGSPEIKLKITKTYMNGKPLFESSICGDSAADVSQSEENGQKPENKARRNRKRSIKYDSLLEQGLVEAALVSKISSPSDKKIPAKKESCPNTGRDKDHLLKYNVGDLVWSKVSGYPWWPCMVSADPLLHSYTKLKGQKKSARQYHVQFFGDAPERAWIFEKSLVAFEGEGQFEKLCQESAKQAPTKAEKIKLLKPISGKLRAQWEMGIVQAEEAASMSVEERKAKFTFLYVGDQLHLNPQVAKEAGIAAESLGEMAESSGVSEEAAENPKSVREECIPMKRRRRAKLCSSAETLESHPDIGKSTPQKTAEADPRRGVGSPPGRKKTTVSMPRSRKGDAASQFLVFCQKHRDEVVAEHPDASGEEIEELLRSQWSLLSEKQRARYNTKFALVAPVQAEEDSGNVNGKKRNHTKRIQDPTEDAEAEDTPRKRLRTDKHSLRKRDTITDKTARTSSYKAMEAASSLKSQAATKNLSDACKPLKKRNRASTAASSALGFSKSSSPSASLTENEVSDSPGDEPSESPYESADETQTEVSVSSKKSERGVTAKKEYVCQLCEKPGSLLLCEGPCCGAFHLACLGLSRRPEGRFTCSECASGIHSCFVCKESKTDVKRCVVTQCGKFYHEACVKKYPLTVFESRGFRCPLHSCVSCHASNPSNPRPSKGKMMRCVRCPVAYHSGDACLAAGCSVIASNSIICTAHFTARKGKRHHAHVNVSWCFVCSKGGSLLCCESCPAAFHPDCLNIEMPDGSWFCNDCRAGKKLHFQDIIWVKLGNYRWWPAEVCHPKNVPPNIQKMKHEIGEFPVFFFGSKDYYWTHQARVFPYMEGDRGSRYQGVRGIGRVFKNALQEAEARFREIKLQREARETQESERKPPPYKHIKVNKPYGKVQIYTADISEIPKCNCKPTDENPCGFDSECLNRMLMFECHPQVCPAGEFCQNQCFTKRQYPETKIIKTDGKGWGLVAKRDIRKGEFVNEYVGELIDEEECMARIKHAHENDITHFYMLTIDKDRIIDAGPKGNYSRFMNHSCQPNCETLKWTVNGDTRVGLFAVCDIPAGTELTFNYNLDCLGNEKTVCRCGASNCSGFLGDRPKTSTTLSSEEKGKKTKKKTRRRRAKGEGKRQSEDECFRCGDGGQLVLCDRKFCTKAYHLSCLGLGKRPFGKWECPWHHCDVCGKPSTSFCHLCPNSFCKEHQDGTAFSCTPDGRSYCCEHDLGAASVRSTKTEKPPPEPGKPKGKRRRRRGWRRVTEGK
In kind it is biochemical.

Test [3] concerns the target T2, Sentrin-specific protease 6 (Homo sapiens, UniProt Q9GZR1).
T2 sequence (Q9GZR1 whole entry): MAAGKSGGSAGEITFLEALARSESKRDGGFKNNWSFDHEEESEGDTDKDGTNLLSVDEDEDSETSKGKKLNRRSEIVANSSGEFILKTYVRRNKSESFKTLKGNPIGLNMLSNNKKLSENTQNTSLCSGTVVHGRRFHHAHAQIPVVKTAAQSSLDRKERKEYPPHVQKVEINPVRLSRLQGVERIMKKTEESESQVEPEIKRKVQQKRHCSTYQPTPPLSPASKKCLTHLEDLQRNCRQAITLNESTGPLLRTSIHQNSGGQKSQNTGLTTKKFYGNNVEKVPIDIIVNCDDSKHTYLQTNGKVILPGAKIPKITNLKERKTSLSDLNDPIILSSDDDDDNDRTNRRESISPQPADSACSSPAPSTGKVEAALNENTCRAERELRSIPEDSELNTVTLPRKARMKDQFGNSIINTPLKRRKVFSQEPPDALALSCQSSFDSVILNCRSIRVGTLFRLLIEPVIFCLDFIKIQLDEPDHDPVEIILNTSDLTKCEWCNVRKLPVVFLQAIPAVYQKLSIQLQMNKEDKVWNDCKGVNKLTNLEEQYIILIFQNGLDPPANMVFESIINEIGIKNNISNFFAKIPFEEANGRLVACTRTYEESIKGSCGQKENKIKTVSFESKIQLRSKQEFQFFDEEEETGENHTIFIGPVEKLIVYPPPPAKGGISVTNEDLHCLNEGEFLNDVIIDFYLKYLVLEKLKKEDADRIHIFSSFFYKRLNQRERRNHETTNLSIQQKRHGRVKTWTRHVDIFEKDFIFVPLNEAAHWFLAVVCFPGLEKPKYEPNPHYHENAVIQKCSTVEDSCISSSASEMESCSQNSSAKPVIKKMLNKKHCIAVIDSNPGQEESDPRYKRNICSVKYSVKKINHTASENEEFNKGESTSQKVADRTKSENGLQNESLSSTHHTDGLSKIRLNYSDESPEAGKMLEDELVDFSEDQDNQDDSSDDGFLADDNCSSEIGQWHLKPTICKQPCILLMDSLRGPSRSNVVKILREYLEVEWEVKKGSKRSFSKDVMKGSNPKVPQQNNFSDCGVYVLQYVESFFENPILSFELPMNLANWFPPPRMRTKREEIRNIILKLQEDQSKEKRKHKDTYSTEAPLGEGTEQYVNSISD
Briefly: SAR Analysis of small molecule inhibitors of Sentrin-specific protease 6 (SENP6) using a Luminescent assay. [Related pubchem assays (depositor defined):AID2582, AID2599]. In kind it is functional.

In test [4] the target is Mitogen-activated protein kinase 8 (Homo sapiens, UniProt P45983). The class given is functional.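 Further: value comes from one member of a kinome-wide kinase profiling panel.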
For test [5], the target named is Serine/threonine-protein kinase pim-2 (Homo sapiens, UniProt Q9P1W9). The class given is functional.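 Further: value comes from a broad kinase panel profiling study in which PIM2 was one of the panel members.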
Test [6] deals with Glycogen synthase kinase-3 alpha (Homo sapiens, UniProt P49840). In kind it is functional.
For test [7], the target named is Mitogen-activated protein kinase 1 (Homo sapiens, UniProt P28482). In kind it is functional.
Test [8] has as its target Ribosomal protein S6 kinase beta-1 (Homo sapiens, UniProt P23443). In kind it is functional.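 Further: measured as one member of a kinome-wide profiling panel.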
In test [9] the target is Protein-tyrosine kinase 6 (Homo sapiens, UniProt Q13882). The class given is functional.
Test [10] has as its target Interleukin-1 receptor-associated kinase 1 (Homo sapiens, UniProt P51617). In kind it is functional.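 Further: IRAK1 tested as one member of a kinome panel.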
The target of test [11] is Homeodomain-interacting protein kinase 4 (Homo sapiens, UniProt Q8NE63). The class given is functional.
Test [12] has as its target Tyrosine-protein kinase Lck (Homo sapiens, UniProt P06239). In kind it is functional.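 Further: lck was assayed as one member of a kinase panel.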

Mitogen-activated protein kinase 8, sequence (P45983 whole entry): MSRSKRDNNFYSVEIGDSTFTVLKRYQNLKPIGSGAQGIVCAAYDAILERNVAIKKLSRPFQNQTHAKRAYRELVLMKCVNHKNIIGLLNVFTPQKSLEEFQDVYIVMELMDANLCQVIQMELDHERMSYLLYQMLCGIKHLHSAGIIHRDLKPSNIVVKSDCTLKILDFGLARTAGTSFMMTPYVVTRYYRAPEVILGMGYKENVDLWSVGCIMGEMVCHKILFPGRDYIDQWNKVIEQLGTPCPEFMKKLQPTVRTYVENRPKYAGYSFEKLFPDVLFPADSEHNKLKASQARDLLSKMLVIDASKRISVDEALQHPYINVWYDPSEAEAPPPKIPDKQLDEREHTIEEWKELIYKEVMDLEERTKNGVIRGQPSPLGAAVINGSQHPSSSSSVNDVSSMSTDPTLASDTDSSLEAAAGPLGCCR
Serine/threonine-protein kinase pim-2, sequence (Q9P1W9 whole entry): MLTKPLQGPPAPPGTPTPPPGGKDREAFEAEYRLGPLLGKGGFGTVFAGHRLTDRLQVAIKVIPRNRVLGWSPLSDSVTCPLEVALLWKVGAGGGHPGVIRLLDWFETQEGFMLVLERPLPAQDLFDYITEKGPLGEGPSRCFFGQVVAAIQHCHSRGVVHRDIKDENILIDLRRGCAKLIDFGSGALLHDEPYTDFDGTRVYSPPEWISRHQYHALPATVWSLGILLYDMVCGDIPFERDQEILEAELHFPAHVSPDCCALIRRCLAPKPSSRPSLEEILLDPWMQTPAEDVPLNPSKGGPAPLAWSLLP
Tyrosine-protein kinase Lck, sequence (P06239 whole entry): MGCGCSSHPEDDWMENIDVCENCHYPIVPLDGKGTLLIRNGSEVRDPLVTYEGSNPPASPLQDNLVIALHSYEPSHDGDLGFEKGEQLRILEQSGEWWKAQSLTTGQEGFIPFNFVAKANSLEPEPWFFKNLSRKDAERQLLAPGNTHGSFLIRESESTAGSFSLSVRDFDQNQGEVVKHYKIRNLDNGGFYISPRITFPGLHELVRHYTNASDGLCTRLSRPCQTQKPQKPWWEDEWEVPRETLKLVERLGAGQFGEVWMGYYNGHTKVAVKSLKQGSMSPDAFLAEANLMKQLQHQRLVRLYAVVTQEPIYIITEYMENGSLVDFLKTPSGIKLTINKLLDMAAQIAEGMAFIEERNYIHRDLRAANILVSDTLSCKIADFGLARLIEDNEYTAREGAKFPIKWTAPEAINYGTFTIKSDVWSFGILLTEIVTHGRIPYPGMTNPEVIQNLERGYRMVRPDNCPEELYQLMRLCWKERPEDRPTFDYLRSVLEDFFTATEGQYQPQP
Ribosomal protein S6 kinase beta-1, sequence (P23443 whole entry): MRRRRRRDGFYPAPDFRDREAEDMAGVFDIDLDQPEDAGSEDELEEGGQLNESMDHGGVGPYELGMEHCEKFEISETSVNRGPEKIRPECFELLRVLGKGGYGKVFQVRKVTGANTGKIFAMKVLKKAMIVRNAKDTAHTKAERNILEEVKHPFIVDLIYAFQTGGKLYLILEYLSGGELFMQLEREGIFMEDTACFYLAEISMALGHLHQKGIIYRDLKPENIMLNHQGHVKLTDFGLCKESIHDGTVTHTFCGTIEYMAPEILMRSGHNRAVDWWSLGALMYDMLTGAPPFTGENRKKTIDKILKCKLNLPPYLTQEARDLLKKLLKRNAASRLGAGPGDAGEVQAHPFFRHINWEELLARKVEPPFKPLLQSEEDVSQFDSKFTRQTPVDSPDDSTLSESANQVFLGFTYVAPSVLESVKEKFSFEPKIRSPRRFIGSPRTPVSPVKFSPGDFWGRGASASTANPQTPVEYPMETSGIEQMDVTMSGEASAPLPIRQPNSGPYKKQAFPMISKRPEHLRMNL
Homeodomain-interacting protein kinase 4, sequence (Q8NE63 whole entry): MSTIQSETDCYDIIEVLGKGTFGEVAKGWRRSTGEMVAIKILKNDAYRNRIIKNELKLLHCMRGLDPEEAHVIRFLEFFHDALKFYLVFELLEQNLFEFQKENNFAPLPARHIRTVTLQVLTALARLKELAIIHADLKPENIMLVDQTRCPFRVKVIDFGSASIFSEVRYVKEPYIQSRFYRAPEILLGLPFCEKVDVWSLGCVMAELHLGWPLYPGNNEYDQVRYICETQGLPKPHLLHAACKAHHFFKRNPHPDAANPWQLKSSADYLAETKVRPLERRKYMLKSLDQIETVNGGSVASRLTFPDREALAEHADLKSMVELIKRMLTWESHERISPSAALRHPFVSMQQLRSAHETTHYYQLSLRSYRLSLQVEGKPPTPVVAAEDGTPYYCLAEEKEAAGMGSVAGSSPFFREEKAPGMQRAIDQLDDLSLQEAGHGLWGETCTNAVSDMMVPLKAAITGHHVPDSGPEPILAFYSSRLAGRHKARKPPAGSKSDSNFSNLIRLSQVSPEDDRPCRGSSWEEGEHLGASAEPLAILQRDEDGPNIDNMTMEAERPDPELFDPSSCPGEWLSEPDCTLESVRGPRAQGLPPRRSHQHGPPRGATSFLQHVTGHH
Glycogen synthase kinase-3 alpha, sequence (P49840 whole entry): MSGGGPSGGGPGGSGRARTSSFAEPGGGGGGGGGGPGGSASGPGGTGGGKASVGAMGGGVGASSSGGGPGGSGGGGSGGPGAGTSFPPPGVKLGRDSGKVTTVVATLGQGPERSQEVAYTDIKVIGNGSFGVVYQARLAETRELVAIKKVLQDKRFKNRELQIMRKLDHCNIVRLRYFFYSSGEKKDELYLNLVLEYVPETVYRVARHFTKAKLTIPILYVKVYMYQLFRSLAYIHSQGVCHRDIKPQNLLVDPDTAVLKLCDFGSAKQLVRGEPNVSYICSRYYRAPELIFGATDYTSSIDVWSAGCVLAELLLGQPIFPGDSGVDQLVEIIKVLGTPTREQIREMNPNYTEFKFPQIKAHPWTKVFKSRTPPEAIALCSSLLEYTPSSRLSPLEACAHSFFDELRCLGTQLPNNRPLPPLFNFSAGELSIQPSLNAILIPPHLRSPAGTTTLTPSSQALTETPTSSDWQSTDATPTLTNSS
Interleukin-1 receptor-associated kinase 1, sequence (P51617 whole entry): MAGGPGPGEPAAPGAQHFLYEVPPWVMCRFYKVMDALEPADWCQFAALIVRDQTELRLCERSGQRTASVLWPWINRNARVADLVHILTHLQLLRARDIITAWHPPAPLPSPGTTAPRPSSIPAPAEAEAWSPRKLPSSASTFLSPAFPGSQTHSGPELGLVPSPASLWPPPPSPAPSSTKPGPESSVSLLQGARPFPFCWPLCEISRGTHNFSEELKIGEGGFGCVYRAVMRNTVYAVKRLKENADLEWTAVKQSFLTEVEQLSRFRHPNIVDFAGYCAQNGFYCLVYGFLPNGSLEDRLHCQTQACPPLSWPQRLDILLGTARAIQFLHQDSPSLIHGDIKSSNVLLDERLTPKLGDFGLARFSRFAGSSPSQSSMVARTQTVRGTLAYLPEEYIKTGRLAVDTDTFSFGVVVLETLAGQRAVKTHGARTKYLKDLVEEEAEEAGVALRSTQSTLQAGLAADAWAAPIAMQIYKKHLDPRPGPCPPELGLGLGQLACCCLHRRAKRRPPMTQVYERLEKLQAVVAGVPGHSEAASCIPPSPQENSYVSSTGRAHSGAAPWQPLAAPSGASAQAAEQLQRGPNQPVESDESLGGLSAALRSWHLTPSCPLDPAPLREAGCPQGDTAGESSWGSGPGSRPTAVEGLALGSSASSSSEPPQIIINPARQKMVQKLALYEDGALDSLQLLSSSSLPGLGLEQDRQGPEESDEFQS
Protein-tyrosine kinase 6, sequence (Q13882 whole entry): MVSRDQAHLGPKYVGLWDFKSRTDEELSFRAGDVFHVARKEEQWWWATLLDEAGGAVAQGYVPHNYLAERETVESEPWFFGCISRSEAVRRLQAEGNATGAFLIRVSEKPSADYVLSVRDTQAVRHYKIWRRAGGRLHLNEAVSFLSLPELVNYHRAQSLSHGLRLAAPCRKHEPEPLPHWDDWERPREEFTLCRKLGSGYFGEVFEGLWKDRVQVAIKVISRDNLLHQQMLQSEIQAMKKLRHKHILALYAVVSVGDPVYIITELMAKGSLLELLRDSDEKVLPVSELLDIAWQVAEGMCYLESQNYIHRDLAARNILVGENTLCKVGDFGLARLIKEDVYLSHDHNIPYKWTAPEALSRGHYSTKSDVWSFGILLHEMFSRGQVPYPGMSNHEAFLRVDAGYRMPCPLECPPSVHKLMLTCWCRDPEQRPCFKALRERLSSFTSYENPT
Mitogen-activated protein kinase 1, sequence (P28482 whole entry): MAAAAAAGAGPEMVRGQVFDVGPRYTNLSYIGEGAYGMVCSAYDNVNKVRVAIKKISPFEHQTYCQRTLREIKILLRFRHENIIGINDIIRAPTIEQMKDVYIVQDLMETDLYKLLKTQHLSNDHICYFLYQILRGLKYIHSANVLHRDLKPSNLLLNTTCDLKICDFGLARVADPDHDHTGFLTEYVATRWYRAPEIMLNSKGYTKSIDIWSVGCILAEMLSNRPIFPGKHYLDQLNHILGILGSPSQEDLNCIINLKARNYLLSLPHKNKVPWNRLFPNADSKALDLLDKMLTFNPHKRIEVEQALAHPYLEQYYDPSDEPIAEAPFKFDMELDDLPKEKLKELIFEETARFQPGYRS

Take `O=C1C=C(N2CCCCC2)c2ccccc2C1=O`: the values for the AC50 in test [1] and in test [2] were 4.98 µM (active) and 1.11 µM (active), respectively.

For `O=C(CCc1ccccc1)NNc1cc(N2CCCCC2)nc(N2CCCCC2)n1`, in [3], the half-inhibitory concentration (IC50) (usually the concentration that gives 50% inhibition) was 35.7 µM (active).

With `Cc1n[nH]c2ccc(-c3cncc(OCC(N)Cc4cccc(Cl)c4)c3)cc12` (configuration not stated), the Ki (commonly a measure of affinity in units of concentration, obtained from inhibition or displacement) in test [4] is 2.51 µM (active); in [5] it was 0.01 µM (active); in test [6], 0.0501 µM (active); in test [7], 0.0794 µM (active); in test [8] it was 0.0794 µM (active); in test [9] it was > 2.51 µM (inactive). For the same compound, the Ki in test [10] was 1.26 µM (active); in test [11], 1.58 µM (active); in test [12], > 2.51 µM (inactive).
